Measured values from patent US20230117592A1 (SRI International, priority 2019, published 2023).
Several values for one entry are separate records, joined by “and”; a condition that tells them apart may be missing. Identical values can stand only once.

Key:
[1] = target: T1, 5-LOX (Homo sapiens, UniProt P09917); assay: 5-LOX fluorescent assay (in vitro lipoxygenase inhibition); format: biochemical; settings: recombinant 5-LOX cell lysate, 20 μM AA, DHR123 fluorescence; several values in a cell = repeat determinations; read-out: IC50 (μM) values for in vitro lipoxygenase inhibition, 5-LOX
T1 sequence (P09917 1-674): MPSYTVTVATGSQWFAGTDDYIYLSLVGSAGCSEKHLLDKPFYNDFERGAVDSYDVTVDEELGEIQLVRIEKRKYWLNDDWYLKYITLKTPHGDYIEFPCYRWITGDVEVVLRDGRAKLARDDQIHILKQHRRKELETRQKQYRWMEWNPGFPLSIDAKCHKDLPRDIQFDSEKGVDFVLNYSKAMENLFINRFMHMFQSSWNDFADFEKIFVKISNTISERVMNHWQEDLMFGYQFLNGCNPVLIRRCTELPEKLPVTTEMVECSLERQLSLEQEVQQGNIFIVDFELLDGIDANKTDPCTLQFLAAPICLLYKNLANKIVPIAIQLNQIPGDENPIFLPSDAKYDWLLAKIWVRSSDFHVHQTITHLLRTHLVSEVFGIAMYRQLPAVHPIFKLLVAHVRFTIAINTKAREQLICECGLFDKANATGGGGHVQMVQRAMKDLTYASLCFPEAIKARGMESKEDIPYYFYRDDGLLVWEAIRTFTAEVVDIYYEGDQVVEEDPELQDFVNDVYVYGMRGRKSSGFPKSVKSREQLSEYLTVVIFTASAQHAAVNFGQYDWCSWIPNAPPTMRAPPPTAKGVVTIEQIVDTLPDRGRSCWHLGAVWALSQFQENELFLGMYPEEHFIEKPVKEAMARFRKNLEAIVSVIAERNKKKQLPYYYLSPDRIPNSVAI
In short: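 Recombinant human 5-LOX cell lysate pre-incubated 15 min with inhibitor in 50 mM Tris pH 7.5, 0.1 mM EDTA, 0.3 mM CaCl2. Reaction started with 20 μM arachidonic acid plus 100 μM ATP, with 1 μM DHR123 as fluorescent probe. IC50 from percent inhibition per dose via 4-parameter logistic or sigmoidal dose-response fit.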

[2] = target: T2, 12-LOX (Homo sapiens, UniProt P18054); assay: 12-LOX fluorescent assay (in vitro lipoxygenase inhibition); format: biochemical
T2 sequence (P18054 1-663): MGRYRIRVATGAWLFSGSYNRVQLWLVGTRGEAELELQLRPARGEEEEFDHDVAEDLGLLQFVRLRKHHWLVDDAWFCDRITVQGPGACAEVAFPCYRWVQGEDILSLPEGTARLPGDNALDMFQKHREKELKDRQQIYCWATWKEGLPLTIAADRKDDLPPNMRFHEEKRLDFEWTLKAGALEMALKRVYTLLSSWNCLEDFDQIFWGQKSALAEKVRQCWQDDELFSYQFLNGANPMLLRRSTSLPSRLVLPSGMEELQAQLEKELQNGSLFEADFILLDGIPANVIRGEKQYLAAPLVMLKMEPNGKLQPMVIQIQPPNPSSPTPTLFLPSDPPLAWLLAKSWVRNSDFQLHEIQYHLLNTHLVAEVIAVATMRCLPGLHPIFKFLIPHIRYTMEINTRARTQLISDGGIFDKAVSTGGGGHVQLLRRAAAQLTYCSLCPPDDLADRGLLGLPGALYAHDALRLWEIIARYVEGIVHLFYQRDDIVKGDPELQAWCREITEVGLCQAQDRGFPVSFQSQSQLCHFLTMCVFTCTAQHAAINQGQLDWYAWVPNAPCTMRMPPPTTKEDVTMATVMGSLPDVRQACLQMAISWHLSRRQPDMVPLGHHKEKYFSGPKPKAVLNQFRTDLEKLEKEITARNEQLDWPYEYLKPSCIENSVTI
In short: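 Fluorescent assay in 50 mM Tris pH 7.5, 0.05% Tween-20, with 100 nM recombinant 12-LOX preincubated 15 min with inhibitor. Reaction was started with 20 μM arachidonic acid substrate and 1 μM DHR123. Percent inhibition per dose was fitted by 4-parameter logistic or sigmoidal dose-response for IC50.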

Which IC50 [1] does the source give for `c1ccc(Nc2ccc(NCCCn3cncn3)c(-c3ccccc3)c2)cc1` [SS20308-0151-01, N^2-(3-(1H-1,2,4-triazol-1-yl)propyl)-N^5-phenylbiphenyl-2,5-diamine] here?
The IC50 was 0.07 µM and 0.04 µM.

And the IC50 [2]?
Its IC50 is 20 nM.
